We go through twelve compounds from US9029574B2, “Bicyclic compound and use thereof for medical purposes” (Ono Pharmaceutical Co., Ltd., priority 2011, dated 2015).

Holding throughout (type): cell-based
In experiment [1] the target is T1, mouse FP receptor (Mus musculus, UniProt P43117).
T1 construct: expressed in transfected cells; host or cells: CHO cells (FP-CHO)
The experiment is described as follows: Measurement of FP agonist activity (intracellular calcium concentration) in FP-CHO cells. The conditions noted are these: for EC50: FP-CHO cells, intracellular calcium concentration, read-out: Agonist activity on various prostanoid receptors: EC50 value (nmol/L) FP. The source says:
(§1) (1-1) Measurement of Agonist Activity on Various Mouse Prostanoid Receptors
(§2) With using CHO cells (FP-CHO, EP1-CHO and IP-CHO, respectively) in which various mouse prostanoid receptors were forcibly expressed, respectively, agonist activity of test compounds on various prostanoid receptors was studied employing an intracellular calcium concentration regarding FP and EP1, and an intracellular cyclic AMP (hereinafter, abbreviated as cAMP) production amount regarding IP, as an index.
(§3) The test compound was dissolved with dimethyl sulfoxide (DMSO) to prepare a 10 mmol/L solution. Regarding the prepared 10 mmol/L solution, upon use, the 10 mmol/L solution was thawed; step wisely-diluted using DMSO; and diluted with a buffer solution for measurement or a buffer solution for measurement 2, which was subjected to an experiment.
(§4) Cells forcibly expressing various mouse prostanoid receptors were standing-cultured at 37° C. in the presence of 5% CO2 with using an α-MEM medium (Sigma) (for culturing FP-CHO and EP1-CHO) containing inactivated (56° C., 30 minutes) 9.8 vol % dialysed-FBS (Invitrogen) and penicillin-streptomycin-glutamine (GIBCO-BRL), or nucleic acid-containing α-MEM (Sigma) (for culturing IP-CHO) containing inactivated (56° C., 30 minutes) 9.8 vol % dialysed-FBS (Invitrogen) and penicillin-streptomycin glutamine (Invitrogen). Subculturing was performed by the following method.
(§5) After collecting cells into a centrifuging tube, cells were centrifuged at 120 g for 3 minutes at room temperature and the supernatant was removed. Cells were suspended in a suitable amount of a medium, and seeded in a culturing flask.
(§6) (1-2) Measurement of FP and EP1 Agonist Activity (Measurement of Intracellular Calcium Concentration)
(§7) Regarding FP-CHO and EP1-CHO, by the same method as that of subculturing, cells were peeled and suspended. Before two days from measurement, cells were seeded at a density of 1.0×10^4 cells/well into a 96-well UV plate, and standing-cultured at 37° C. in the presence of 5% CO2. […] To each well, 100 μL of a medium containing 5 μmol/L fura 2-AM (DOJINDO), 2.5 mmol/L Probenecid (Sigma), 20 μmol/L indometacin (Sigma) and 10 mmol/L HEPES (Invitrogen) was added, and cells were incubated for about 60 minutes in a CO2 incubator. After completion of the incubation, the medium was removed, and cells were washed with a buffer solution for measurement (Hank's balanced salt solution (Nissui Pharmaceutical Co., Ltd., 9.8 g of the present product was dissolved in 1 L distilled water) containing 0.1 or 1 w/v % bovine serum albumin, 2 μmol/L indometacin, 2.5 mmol/L Probenecid and 10 mmol/L HEPES-NaOH (pH 7.4)) twice. To each well, 120 μL of a buffer solution for measurement was added; and cells were incubated in a CO2 incubator for 30 minutes; and then cells were subjected to an experiment.
(§8) The 96-well UV plate was set in a fluorescent spectral photometer (FDSS-3000, Hamamatsu Photonics K.K.), and an intracellular calcium concentration was measured. To perform a reaction, 30 μL of a buffered solution for measurement containing an agonist at a variety of concentrations was added. Measurement of an intracellular calcium concentration was performed by irradiating cells with excited light of 340 nm and 380 nm alternately, with measuring a fluorescent intensity at 500 nm, and obtaining a fluorescent intensity ratio of 2-wavelength excitation.
(§9) With using measured values obtained from the above method, an EC50 value as an index of agonist activity of the compound of the present invention on mouse FP, mouse EP1 and mouse IP receptors was calculated.
(In general: Calcium assays in cells follow changes in intracellular calcium, usually with a dye or a luminescent sensor.)

In experiment [2] the target is T2, mouse EP1 receptor (Mus musculus, UniProt P35375).
T2 construct: expressed in transfected cells; host or cells: CHO cells (EP1-CHO)
T2 sequence (P35375 1-405): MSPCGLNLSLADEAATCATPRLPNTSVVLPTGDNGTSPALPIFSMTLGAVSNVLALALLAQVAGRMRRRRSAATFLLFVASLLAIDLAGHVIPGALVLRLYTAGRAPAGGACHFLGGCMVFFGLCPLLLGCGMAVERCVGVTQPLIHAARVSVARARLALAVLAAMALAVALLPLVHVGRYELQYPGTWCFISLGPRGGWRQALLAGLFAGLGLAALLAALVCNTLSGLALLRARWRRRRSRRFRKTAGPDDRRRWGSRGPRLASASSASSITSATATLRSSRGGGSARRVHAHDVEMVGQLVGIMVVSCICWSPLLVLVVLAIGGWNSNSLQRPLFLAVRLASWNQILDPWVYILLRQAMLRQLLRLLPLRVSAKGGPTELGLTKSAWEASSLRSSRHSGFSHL
Kind of experiment: Measurement of EP1 agonist activity (intracellular calcium concentration) in EP1-CHO cells. Conditions: for EC50: EP1-CHO cells, intracellular calcium concentration, read-out: Agonist activity on various prostanoid receptors: EC50 value (nmol/L) EP1.
Description: as §1, §2, §3, §4, §5, §6, §7, §8, §9

For experiment [3], the target named is T3, mouse IP receptor (Mus musculus, UniProt P43252).
T3 construct: expressed in transfected cells; host or cells: CHO cells (IP-CHO)
Kind of experiment: Measurement of IP agonist activity (cAMP concentration) in IP-CHO cells. The conditions noted are these: for EC50: IP-CHO cells, intracellular cAMP production amount, read-out: Agonist activity on various prostanoid receptors: EC50 value (nmol/L) IP.
Description: as §1, §2, §3, §4, §5
(1-3) Measurement of IP Agonist Activity (Measurement of cAMP Concentration)
Cells were suspended in a suitable amount of a buffer solution for measurement 1 (MEM medium (Invitrogen) containing 0.1 w/v % bovine serum albumin (Sigma) and 2 μmol/L diclofenac (Sigma)), and centrifuged at room temperature for 3 minutes at 500 g, and the supernatant was removed. Cells were suspended in a buffer solution for measurement 2 (MEM medium (Invitrogen) containing 0.1 w/v % bovine serum albumin (Sigma), 2 μmol/L diclofenac (Sigma) and 1 mmol/L 3-isobutyl-1-methylxanthine), and each 25 μL of the suspension was dispensed at a density of 5.0×10^4 cells/well into a 96-well ½ area plate. A buffer solution for measurement 2 (25 μL) containing an agonist at a variety of concentrations was added to perform a reaction at room temperature for 30 minutes. Measurement of a cAMP concentration was performed with using the cAMP HTRF HiRange kit (CIS bio International). According to the two step protocol of the kit manual, each 25 μL of cAMP-D2 and cryptase diluted with a lysis buffer were added, followed by incubation at room temperature for 1 hour. After incubation for 1 hour, time resolved fluorescence at 620 nm and 660 nm in case of beging excited at 340 nm was measured using Analyst GT (Molecular Device), and a ratio (TRF ratio) was obtained, by which a cAMP concentration was calculated from a calibration line.
as §9
(cAMP levels reflect the balance of adenylyl cyclase and phosphodiesterase activity.)

T3 sequence (P43252 whole entry): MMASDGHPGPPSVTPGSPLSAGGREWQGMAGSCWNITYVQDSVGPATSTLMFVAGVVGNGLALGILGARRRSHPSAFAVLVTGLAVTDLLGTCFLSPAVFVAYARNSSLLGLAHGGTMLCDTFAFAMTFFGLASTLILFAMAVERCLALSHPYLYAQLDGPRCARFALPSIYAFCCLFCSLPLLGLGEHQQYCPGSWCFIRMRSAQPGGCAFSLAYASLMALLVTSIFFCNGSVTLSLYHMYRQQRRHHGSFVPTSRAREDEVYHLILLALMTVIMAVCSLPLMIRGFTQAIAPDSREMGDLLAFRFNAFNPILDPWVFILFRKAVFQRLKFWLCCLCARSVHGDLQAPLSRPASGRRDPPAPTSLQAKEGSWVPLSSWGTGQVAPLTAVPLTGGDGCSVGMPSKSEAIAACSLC
T1 sequence (P43117 whole entry): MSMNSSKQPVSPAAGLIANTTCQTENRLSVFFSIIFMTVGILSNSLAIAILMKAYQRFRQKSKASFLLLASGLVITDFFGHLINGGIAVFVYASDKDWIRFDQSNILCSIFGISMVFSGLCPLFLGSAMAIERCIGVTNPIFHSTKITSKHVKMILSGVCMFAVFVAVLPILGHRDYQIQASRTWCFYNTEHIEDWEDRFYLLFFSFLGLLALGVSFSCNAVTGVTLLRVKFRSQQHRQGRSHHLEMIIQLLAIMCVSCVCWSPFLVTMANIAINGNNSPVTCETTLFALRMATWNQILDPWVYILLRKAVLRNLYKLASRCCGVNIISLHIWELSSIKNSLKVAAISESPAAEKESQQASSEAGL

Regarding `O=C(O)CCC[C@H]1CC[C@H]2[C@H](CC(F)(F)[C@@H]2/C=C/C(O)CCc2ccccc2)OC1` (stereo partly drawn) [Example 139 (2), 4-{(3S,5aR,6R,8aS)-7,7-difluoro-6-[(1E)-3-hydroxy-5-phenyl-1-penten-1-yl]octahydro-2H-cyclopenta[b]oxepin-3-yl}butanoic acid], the values for the EC50 in experiment [1], in experiment [2] and in experiment [3] were 39 nmol/L, above 10000 nmol/L and above 10000 nmol/L, respectively.
Take `O=C(O)CCC[C@H]1CC[C@@H]2[C@@H](CCOCCc3ccccc3)[C@H](O)C[C@@H]2OC1` [Example 115, 4-{(3S,5aR,6R,7R,8aS)-7-hydroxy-6-[2-(2-phenylethoxy)ethyl]octahydro-2H-cyclopenta[b]oxepin-3-yl}butanoic acid]: the EC50 in experiment [1] is 509 nmol/L; in experiment [2], above 10000 nmol/L; in experiment [3], above 10000 nmol/L.
Regarding `O=C(O)CCC[C@H]1CC[C@@H]2[C@@H](/C=C/C(O)CCC3CCCC3)[C@H](O)C[C@@H]2OC1` (stereo partly drawn) [Example 132 (7), 4-{(3S,5aR,6R,7R,8aS)-6-[(1E)-5-cyclopentyl-3-hydroxy-1-penten-1-yl]-7-hydroxyoctahydro-2H-cyclopenta[b]oxepin-3-yl}butanoic acid], the EC50 was 21.1 nmol/L in experiment [1], above 10000 nmol/L in experiment [2] and above 10000 nmol/L in experiment [3].
With `CC(C)=CCCCC(F)(F)/C=C/[C@@H]1[C@H]2CC[C@H](CCCC(=O)O)CO[C@H]2C[C@H]1O` [Example 141 (5), 4-{(3S,5aR,6R,7R,8aS)-6-[(1E)-3,3-difluoro-8-methyl-1,7-nonadien-1-yl]-7-hydroxyoctahydro-2H-cyclopenta[b]oxepin-3-yl}butanoic acid], the EC50 was 39.1 nmol/L in experiment [1], above 10000 nmol/L in experiment [2] and above 10000 nmol/L in experiment [3].
`O=C(O)CCC[C@H]1CC[C@@H]2[C@@H](C#CC(O)CCc3ccccc3)[C@H](O)C[C@@H]2OC1` (stereo partly drawn) [Example 119, 4-[(3S,5aR,6S,7R,8aS)-7-hydroxy-6-(3-hydroxy-5-phenyl-1-pentyn-1-yl)octahydro-2H-cyclopenta[b]oxepin-3-yl]butanoic acid]: the EC50 was 50.8 nmol/L in experiment [1], above 10000 nmol/L in experiment [2] and above 10000 nmol/L in experiment [3].
For the compound `O=C(O)CCC[C@H]1CC[C@@H]2[C@@H](C(F)/C=C/COc3ccccc3)[C@H](O)C[C@@H]2OC1` (stereo partly drawn) [Example 123, 4-{(3S,5aR,6R,7R,8aS)-6-[(2E)-1-fluoro-4-phenoxy-2-buten-1-yl]-7-hydroxyoctahydro-2H-cyclopenta[b]oxepin-3-yl}butanoic acid], the EC50 in experiment [1] was 99.2 nmol/L; in experiment [2], above 10000 nmol/L; in experiment [3], above 10000 nmol/L.
On to `O=C(O)CCC[C@H]1CC[C@@H]2[C@@H](/C=C/C(F)COc3ccccc3)[C@H](O)C[C@@H]2OC1` (stereo partly drawn) [Example 122, 4-{(3S,5aR,6R,7R,8aS)-6-[(1E)-3-fluoro-4-phenoxy-1-buten-1-yl]-7-hydroxyoctahydro-2H-cyclopenta[b]oxepin-3-yl}butanoic acid], for which the results for the EC50 in experiment [1], in experiment [2] and in experiment [3] were 9.8 nmol/L, 9270 nmol/L and above 10000 nmol/L, respectively.
`O=C(O)CCC[C@H]1CC[C@@H]2[C@@H](/C=C/[C@@H](O)COc3ccccc3)[C@H](O)C[C@@H]2O1` [Comparative Compound A, reference compound]: the EC50 stood at 1.1 nmol/L in experiment [1], 3 nmol/L in experiment [2] and 710 nmol/L in experiment [3]. In experiment [1] (in words, summary of Table 1), the “agonist activity on an FP receptor” value is on record as “has agonist activity”. The “agonist activity on an EP1 receptor” value in experiment [2] (in words, summary of Table 1) is reported as “has agonist activity”. Further, the “agonist activity on an IP receptor” value in experiment [3] (in words, summary of Table 1) is “has agonist activity”.
On to `O=C(O)CCC[C@H]1CC[C@@H]2[C@@H](CC[C@@H](O)COc3cccc(C(F)(F)F)c3)[C@H](O)C[C@@H]2OC1` [Example 108 (13), 4-[(3S,5aR,6R,7R,8aS)-7-hydroxy-6-{(3R)-3-hydroxy-4-[3-(trifluoromethyl)phenoxy]butyl}octahydro-2H-cyclopenta[b]oxepin-3-yl]butanoic acid], for which the EC50 in experiment [1] is 9.7 nmol/L; in experiment [2] it was above 10000 nmol/L; in experiment [3], above 10000 nmol/L.
Turning to `O=C(O)CCC[C@H]1CC[C@@H]2[C@@H](/C=C/C(F)(F)CCc3ccccc3)[C@H](O)C[C@@H]2OC1` [Example 141 (1), 4-{(3S,5aR,6R,7R,8aS)-6-[(1E)-3,3-difluoro-5-phenyl-1-penten-1-yl]-7-hydroxyoctahydro-2H-cyclopenta[b]oxepin-3-yl}butanoic acid], the EC50 was 4.6 nmol/L in experiment [1], above 10000 nmol/L in experiment [2] and above 10000 nmol/L in experiment [3].
On to `O=C(O)CCC[C@H]1CC[C@@H]2[C@@H](COC/C=C/c3ccccc3)[C@H](O)C[C@@H]2OC1` [Example 110, 4-[(3S,5aR,6S,7R,8aS)-7-hydroxy-6-({[(2E)-3-phenyl-2-propen-1-yl]oxy}methyl)octahydro-2H-cyclopenta[b]oxepin-3-yl]butanoic acid], for which the results for the EC50 in experiment [1], in experiment [2] and in experiment [3] were 707 nmol/L, above 10000 nmol/L and above 10000 nmol/L, respectively.
In the case of `O=C(O)CCC[C@H]1CC[C@@H]2[C@@H](/C=C/C(O)COCc3ccccc3)[C@H](O)C[C@@H]2OC1` (stereo partly drawn) [Example 132 (3), 4-{(3S,5aR,6R,7R,8aS)-6-[(1E)-4-(benzyloxy)-3-hydroxy-1-buten-1-yl]-7-hydroxyoctahydro-2H-cyclopenta[b]oxepin-3-yl}butanoic acid], the EC50 in experiment [1] was 114 nmol/L; in experiment [2] it was above 10000 nmol/L; in experiment [3], above 10000 nmol/L.
